Data from patent US12172971B1, “N′-(2-naphthoyloxy)-2-(benzo[d]oxazol-2-yl)acetimidamide as an antimicrobial compound” (priority 2023, dated 2024).

Test system: Bacillus cereus, Staphylococcus aureus, Pseudomonas aeruginosa, Escherichia coli, Aspergillus flavus, Chrysosporium keratinophilum
Assay: agar plate disc-diffusion antimicrobial test
Assay type: cell-based
Details: discs wetted with 10 μL of 10 mg/mL in DMSO; 37° C., 48 h, 72 h for fungi; gram positive and gram-negative bacteria and fungi
Description: The agar plate disc-diffusion method was applied. Sterilized filter papers (6 mm in diameter) were wetted with 10 μL of a solution of N′-(2-naphthoyloxy)-2-(benzo[d]oxazol-2-yl)acetimidamide (3) to be tested, containing 10 mg/mL in DMSO, and the discs were allowed to air dry. The discs were then placed onto the surface of agar plates (nutrient agar for bacteria and Sabouraud's dextrose agar for fungi) seeded with the test organism. Each plate contained 15 mL of the agar medium, previously seeded with 0.2 mL of the broth culture of each organism pregrown for 18 hours. The plates were incubated at 37° C. for 48 h, and 72 h for fungi. The inhibition zones were measured in mm. Discs impregnated with DMSO were used as a control, and its inhibition zone was subtracted from the tested compound actual inhibition zone. […] The antibacterial activity was screened against gram positive bacteria namely Bacillus cereus and Staphylococcus aureus and gram-negative bacterial strains namely Pseudomonas aeruginosa and Escherichia coli, while the antifungal activity was screened against Aspergillus flavus and Chrysosporium keratinophilum.

For `N/C(Cc1nc2ccccc2o1)=N\OC(=O)c1ccc2ccccc2c1` [compound 3, N′-(2-naphthoyloxy)-2-(benzo[d]oxazol-2-yl)acetimidamide], which “antimicrobial activity (disc-diffusion inhibition zones)” value is on record?
Its value is “high antimicrobial activities”.
